# Data from patent publication US20250154134A1, “COMPOUND AS FAK INHIBITOR AND USE THEREOF” (WIGEN BIOMEDICINE TECHNOLOGY (SHANGHAI) CO., LTD., priority 2022, published 2025).
# Where two headings read alike, the source gives them in different places.
# Experiments:
# [1] = target: FAK recombinant protein (Homo sapiens (Human), UniProt Q05397); experiment: Inhibitory activity against FAK enzyme (HTRF, TK substrate); assay type: biochemical
# Protocol: A compound serially diluted with DMSO was mixed with a FAK recombinant protein. After the mixture was left to stand at room temperature for 10 min, a biotin-labeled TK substrate (TK) and ATP were added. […] The inhibition percentage and IC50 of the compound were calculated compared to the DMSO control group.
# [2] = tested on: PC3 cells; experiment: PC3 cell proliferation, 2D activity assay (Cell Titer-Lumi, 72 h); assay type: cell-based, human; conditions: Homo sapiens, PC-3, read-out: 2D inhibitory activity against PC3 cells IC50
# [3] = tested on: PC3 cells; experiment: PC3 cell proliferation, 3D activity assay (3D culture, 14 days); assay type: cell-based, human; conditions: Homo sapiens, PC-3, 336 h, read-out: 3D inhibitory activity against PC3 cells IC50
# [4] = tested on: PC3 cells; experiment: Inhibition of PC3 cell low adsorption (adherent cell count, 4 h); assay type: cell-based; conditions: Homo sapiens, PC-3; 4 h treatment; read-out: IC50 against PC3 cell low adsorption
# Protocol: PC3 cells were seeded at 8000 cells/well. 4 h after the cells were treated with a compound, the number of adherent cells was counted. The inhibition percentage and IC50 of the compound were calculated compared to the DMSO group.
# [5] = tested on: phosphorylation at the FAK 397 site; experiment: Inhibition of Y397 phosphorylation in PC3 cells (ELISA); assay type: cell-based; conditions: Homo sapiens, PC-3, 3 h treatment, read-out: IC50 against Y397 phosphorylation
# Protocol: PC3 cells were seeded at 8000 cells/well. […] The inhibition percentage and IC50 of the compound were calculated compared to the DMSO group.
# [6] = In vivo pharmacokinetic experiment in CD-1 mice; conditions: mouse, plasma, CD-1 female mice; for Vd: read-out: Vdss
# Protocol: […] The mice were fasted for at least 12 h before the administration and given food 4 h after the administration, and they were given ad libitum access to water during the experiment.
# On the day of the experiment, animals in the intravenous group were given the corresponding compound by single injection via the tail vein at an administration volume of 10 mL/kg; and animals in the oral group were given the corresponding compound by single intragastric injection at an administration volume of 10 mL/kg. The animals were weighed before administration, and the administration volume was calculated according to the body weight. The sample collection time points were 0.083 h, 0.167 h, 0.5 h, 1 h, 2 h, 4 h, 8 h, and 24 h. About 200 μL of whole blood was collected through the orbital venous plexus at each time point and used to prepare plasma for concentration determination by high-performance liquid chromatography-tandem mass spectrometry (LC-MS/MS). The plasma concentrations were processed using a non-compartmental model of Winnolin pharmacokinetic software, and the pharmacokinetic parameters were calculated using a linear-log trapezoidal method.
# [7] = tested on: Human pancreatic cancer Mia PaCa-2 cells; experiment: In vivo efficacy, Mia PaCa-2 xenograft in nude mice; set-up: species or system mouse; conditions: MiaPaCa-2 model, 25 mg/kg PO QD 21 days
# Protocol: The groups were as follows: 1) a solvent control group, 8 mice; and 2) a control compound group and a test compound group, 8 mice each. The mice in the solvent control group were intragastrically administered 0.5% CMC-Na twice a day; the mice in the compound groups were intragastrically administered 0.50% MC-Tween-80 suspension once a day. On Tuesday and Thursday each week, tumor volumes and body weight of the mice were measured, and the nude mice were sacrificed on day 21 after the administration. […] The toxicity of the compounds was evaluated according to the body weight of the mice.
# [8] = intravenous, injection (1 mg/kg)
# Chain of FAK recombinant protein (Q05397 whole entry): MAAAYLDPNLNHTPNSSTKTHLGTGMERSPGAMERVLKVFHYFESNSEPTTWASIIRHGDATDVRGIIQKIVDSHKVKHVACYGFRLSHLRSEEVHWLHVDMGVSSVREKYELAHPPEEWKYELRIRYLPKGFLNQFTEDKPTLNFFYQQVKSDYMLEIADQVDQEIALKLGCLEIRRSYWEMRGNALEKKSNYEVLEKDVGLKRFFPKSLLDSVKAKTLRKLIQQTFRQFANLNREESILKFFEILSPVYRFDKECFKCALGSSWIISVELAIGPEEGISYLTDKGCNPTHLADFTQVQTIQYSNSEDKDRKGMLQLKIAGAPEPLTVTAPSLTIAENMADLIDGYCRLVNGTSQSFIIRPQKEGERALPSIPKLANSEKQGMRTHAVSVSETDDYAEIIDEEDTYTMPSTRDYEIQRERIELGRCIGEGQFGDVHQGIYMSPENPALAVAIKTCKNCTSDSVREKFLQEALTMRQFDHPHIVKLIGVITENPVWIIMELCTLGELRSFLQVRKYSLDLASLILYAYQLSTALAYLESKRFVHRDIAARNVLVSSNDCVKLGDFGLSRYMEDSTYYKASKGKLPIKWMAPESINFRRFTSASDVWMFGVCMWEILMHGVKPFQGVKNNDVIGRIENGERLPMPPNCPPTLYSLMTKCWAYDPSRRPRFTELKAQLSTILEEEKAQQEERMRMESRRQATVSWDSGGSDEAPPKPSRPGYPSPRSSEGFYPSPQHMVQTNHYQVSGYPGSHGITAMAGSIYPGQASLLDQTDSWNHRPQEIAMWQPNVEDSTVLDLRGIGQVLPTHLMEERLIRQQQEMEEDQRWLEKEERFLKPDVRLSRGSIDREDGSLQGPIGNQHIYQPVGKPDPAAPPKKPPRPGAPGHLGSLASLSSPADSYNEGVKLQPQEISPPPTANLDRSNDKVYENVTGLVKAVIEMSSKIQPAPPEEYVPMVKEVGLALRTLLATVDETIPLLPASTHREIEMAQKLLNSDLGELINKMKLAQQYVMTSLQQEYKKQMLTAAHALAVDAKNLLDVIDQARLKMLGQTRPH
Compound,IC50 [1] [nM],IC50 [2] [nM],IC50 [3] [nM],IC50 [4] [nM],further results
COc1cc(N2CCC(N3CCN(C)CC3)CC2)ccc1Nc1ncc(C(F)(F)F)c(Oc2cccc3c2C(=O)N(C)C32CC2)n1 [Compound 78],< 20,> 10000,0.78,5.83,IC50 [5]: < 0.01 nM
CN1Cc2cc(Nc3ncc(C(F)(F)F)c(Oc4cccc5c4C(=O)N(C)C54CC4)n3)cc3c2C(CCC3)C1 (stereo not drawn) [Compound 88],< 20,> 10000,1.78,42.4,–
COc1cc(N2CCOCC2)ccc1Nc1ncc(C(F)(F)F)c(Oc2cccc3c2C(=O)N(C)C32CC2)n1 [Compound 77],< 20,> 10000,4.88,27.2,–
COc1cc(N2CC3(CCN(C)CC3)C2)c(F)cc1Nc1ncc(Br)c(Oc2cccc3c2C(=O)N(C)C32CC2)n1 [Compound 178],< 20,> 2000,0.38,6.22,TGI(%) [7]: 82.41%
COc1cc(C(=O)NC2(C)CCN(C)CC2)ccc1Nc1ncc(C(F)(F)F)c(Oc2cccc3c2C(=O)N(C)C32CC2)n1 [Compound 6],< 20,> 2000,< 5,2.67,–
CN1C(=O)c2c(Oc3nc(Nc4ccc5c(c4)CCNC5=O)ncc3C(F)(F)F)cccc2C12CC2 [Compound 71],< 20,> 2000,5.18,16.4,–
COc1cc(N2CCN(C)CC2)ccc1Nc1ncc(Cl)c(Oc2cccc3c2C(=O)N(C)C32CC2)n1 [Compound 141],< 20,> 2000,5 to 50,13.9,–
"CNC(=O)c1ccc(Nc2ncc(C(F)(F)F)c(Oc3cccc4c3C(=O)N(C)C43CC3)n2)cc1 [Compound 1, N-methyl-4-((4-((2′-methyl-3′-oxospiro[cyclopropane-1,1′-isoindolin]-4′-yl)oxy)-5-(trifluoromethyl)pyrimidin-2-yl)amino)benzamide]",< 20,> 2000,10.8,21.1,–
COc1cc(CN(C)C2CCN(C)CC2)ccc1Nc1ncc(Cl)c(Oc2cccc3c2C(=O)N(C)C32CC2)n1 [Compound 154],< 20,> 2000,5 to 50,6.9,–
"COc1cc(N2CCC(N3CCN(C)CC3)CC2)c(F)cc1Nc1ncc(C(F)(F)F)c(Oc2cccc3c2C(=O)N(C)C32CC2)n1 [Compound 121, 4′-((2-((5-fluoro-2-methoxy-4-(4-(4-methylpiperazin-1-yl)piperidin-1-yl)phenyl)amino)-5-(trifluoromethyl)pyrimidin-4-yl)oxy)-2′-methylspiro[cyclopropane-1,1′-isoindolin]-3′-one]",< 20,> 2000,< 5,7.2,–
CN1C(=O)c2c(Oc3nc(Nc4ccc5c(c4)CC(=O)N5)ncc3C(F)(F)F)cccc2C12CC2 [Compound 69],< 20,> 2000,8.52,13.4,–
CN1Cc2cc(Nc3ncc(C(F)(F)F)c(Oc4cccc5c4C(=O)N(C)C54CC4)n3)cc3c2C(CCO3)C1 (stereo not drawn) [Compound 89],< 20,> 10000,5 to 50,36.2,–
"CN1C(=O)c2c(Oc3nc(Nc4cc5n(n4)CCC5)ncc3C(F)(F)F)cccc2C12CC2 [Compound 92, 4′-((2-((5,6-dihydro-4H-pyrrolo[1,2-b]pyrazol-2-yl)amino)-5-(trifluoromethyl)pyrimidin-4-yl)oxy)-2′-methylspiro[cyclopropane-1,1′-isoindolin]-3′-one]",< 20,> 2000,5 to 50,62,–

# More lines, main results first:
IC50 [1] [nM],IC50 [2] [nM],IC50 [3] [nM],IC50 [4] [nM],Compound,further results
< 20,> 2000,0.96,7.54,"COc1cc(C(=O)NC2CC3(CCN(C)CC3)C2)c(F)cc1Nc1ncc(C(F)(F)F)c(Oc2cccc3c2C(=O)N(C)C32CC2)n1 [Compound 8, 2-fluoro-5-methoxy-4-((4-((2′-methyl-3′-oxospiro[cyclopropane-1,1′-isoindolin]-4′-yl)oxy)-5-(trifluoromethyl)pyrimidin-2-yl)amino)-N-(7-methyl-7-azaspiro[3.5]nonan-2-yl)benzamide]",–
< 20,> 2000,5 to 50,36.4,Cc1cc(Nc2ncc(C(F)(F)F)c(Oc3cccc4c3C(=O)N(C)C43CC3)n2)n(C(C)C)n1 [Compound 91],–
< 20,> 2000,5 to 50,6.29,COc1cc(CN2CCN(C)CC2)ccc1Nc1ncc(C(F)(F)F)c(Oc2cccc3c2C(=O)N(C)C32CC2)n1 [Compound 82],–
< 20,> 2000,< 5,11.7,COc1cc(C(=O)NC2COC3(CCN(C)C3)C2)ccc1Nc1ncc(C(F)(F)F)c(Oc2cccc3c2C(=O)N(C)C32CC2)n1 (stereo not drawn) [Compound 27],–
< 20,> 2000,0.33,1.6,"COc1cc(N2CC3(CCN(C)CC3)C2)ccc1Nc1ncc(C#N)c(Oc2cccc3c2C(=O)N(C)C32CC2)n1 [Compound 196, 2-((2-methoxy-4-(7-methyl-2,7-diazaspiro[3.5]nonan-2-yl)phenyl)amino)-4-((2′-methyl-3′-oxospiro[cyclopropane-1,1′-isoindolin]-4′-yl)oxy)pyrimidine-5-carbonitrile]",IC50 [5]: 0.05 nM
< 20,> 2000,2.42,1.67,COc1cc(N2CC3(CCN(C)CC3)C2)c(F)cc1Nc1ncc(C#N)c(Oc2cccc3c2C(=O)N(C)C32CC2)n1 [Compound 197],–
< 20,> 2000,0.38,1.86,"COc1cc(N2CC3(CCN(C)CC3)C2)ccc1Nc1ncc(Br)c(Oc2cccc3c2C(=O)N(C)C32CC2)n1 [Compound 177, 4′-((5-bromo-2-((2-methoxy-4-(7-methyl-2,7-diazaspiro[3.5]nonan-2-yl)phenyl)amino)pyrimidin-4-yl)oxy)-2′-methylspiro[cyclopropane-1,1′-isoindolin]-3′-one]","IC50 [5]: 0.02 nM; AUC(0-t) ([6]; iv, injection (1 mg/kg)): 1110 ng·h/mL; clearance ([6]; iv, injection (1 mg/kg)): 15 mL/min/kg; half-life ([6]; iv, injection (1 mg/kg)): 353 min; Vd ([6]; iv, injection (1 mg/kg)): 7.51 L/kg; AUC(0-t) ([6]; oral administration (10 mg/kg)): 7450 ng·h/mL; Cmax ([6]; oral administration (10 mg/kg)): 815 ng/mL; Tmax ([6]; oral administration (10 mg/kg)): 2 h; bioavailability ([6]; oral administration (10 mg/kg)): 67%; half-life ([6]; oral administration (10 mg/kg)): 202 min"
< 20,> 2000,1.7,5.2,COc1cc(N2CCC(N3CCN(C)CC3)CC2)ccc1Nc1ncc(Cl)c(Oc2cccc3c2C(=O)N(C)C32CC2)n1 [Compound 139],IC50 [5]: 0.56 nM
–,> 2000,0.45,3.14,"COc1cc(C(=O)NC2CCN(C)CC2)ccc1Nc1ncc(C(F)(F)F)c(Oc2cccc3c2C(=O)N(C)C32CC2)n1 [Compound 3, 3-methoxy-4-((4-((2′-methyl-3′-oxospiro[cyclopropane-1,1′-isoindolin]-4′-yl)oxy)-5-(trifluoromethyl)pyrimidin-2-yl)amino)-N-(1-methylpiperidin-4-yl)benzamide]","AUC(0-t) [6, 8]: 248 ng·h/mL; clearance [6, 8]: 67.1 mL/min/kg; half-life [6, 8]: 128 min; Vd [6, 8]: 6.14 L/kg; AUC(0-t) ([6]; oral administration (10 mg/kg)): 190 ng·h/mL; Cmax ([6]; oral administration (10 mg/kg)): 57.2 ng/mL; Tmax ([6]; oral administration (10 mg/kg)): 4 h; bioavailability ([6]; oral administration (10 mg/kg)): 7.94%"
< 20,> 2000,1.09,2.85,"COc1cc(C(=O)NC2CCN(C)CC2)ccc1Nc1ncc(Cl)c(Oc2cccc3c2C(=O)N(C)C32CC2)n1 [Compound 114, 4-((5-chloro-4-((2′-methyl-3′-oxospiro[cyclopropane-1,1′-isoindolin]-4′-yl)oxy)pyrimidin-2-yl)amino)-3-methoxy-N-(1-methylpiperidin-4-yl)benzamide]",IC50 [5]: 0.39 nM
